The test system of this assay is ischemic muscle necrosis. Particulars: wild type mice, 0.5 g/kg/day by gavage for 10 days prior to femoral artery ligation. The text has this: To assess the muscle protective effect of the PPAR-alpha agonist fenofibrate, wild type mice received fenofibrate (0.5 g/kg/day; Cayman Chemical, Ann Arbor, Mich., USA) by gavage, or vehicle alone for 10 days prior to femoral artery ligation. Two days after femoral artery ligation muscle necrosis was subsequently analyzed on histological sections of the crural muscles.
Limb ischemia was induced by high unilateral right or bilateral ligation of the femoral artery and vein, and of the cutaneous vessels branching from the caudal femoral artery, sparing the femoral nerve. Crural muscles were dissected and processed for histological analysis 2 d or 7 d after ligation.
The crural muscles were dissected, fixed in 4% PFA, dehydrated, embedded in paraffin, and sectioned at 10 μm thickness. Microscopic analysis was performed with a Zeiss Axioplan 2 imaging microscope, equipped with an Axiocam HrC camera and KS300 morphometry software (Zeiss). Capillary density, fiber size, and the cross-sectional area of viable and necrotic zones were quantified on eight entire sections (each 320 μm apart) of the crural muscles.

`CC(C)OC(=O)C(C)(C)Oc1ccc(C(=O)c2ccc(Cl)cc2)cc1` [fenofibrate]: the “prevention of ischemic muscle necrosis” value (analysed two days after ligation, versus vehicle) was 60%. In addition, the “% necrotic area/total cross-sectional area” value (crural muscles two days after ligation, n=4, P=0.002 (vehicle 86.3±8.2%)) worked out at 34.3±7%.

Source of the values: patent US20090234150A1, “Use of ppar-alpha agonists to treat skeletal muscle wasting disorders” (priority 2006, published 2009).
